For 13 molecules, IC50 results are on record in patent publication US8962665B2, “Thiazole and oxazole kinase inhibitors” (AB Science, priority 2010, dated 2015).

SMILES strings stand for the structures. Bounds are passed on as bounds.

For this test, the target named is T1, Syk (Homo sapiens, UniProt P43405).
T1 construct: SYK kinase was purified as a full length protein in a baculovirus system near homogeneity; made in house; host or cells: baculovirus system
Nature of the test: Syk kinase HTRF (Kinease TK) assay. The class given is biochemical. As to the method: SYK kinase was purified as a full length protein in a baculovirus system near homogeneity. JAKs kinases (JAK1, JAK2 and JAK3) were purchased either from Invitrogen or from Millipore. All kinases assays were performed with the Kinease TK (tyrosine kinase) HTRF (Homogeneous Time Resolved Fluorescence) assay developed by Cisbio international. […] Reactions were initiated upon introduction of the enzyme and terminated with the addition of one reaction volume (25 μl) of HTRF detection buffer. Plates were incubated for one hour at room temperature and the time resolved Fluorescence resonance energy transfer signal was measured in a Pherastar FS microplate reader (BMG Labtech). All data are the average of triplicate results with a standard deviation<10%.
(TR-FRET usually uses a lanthanide donor and a delayed reading to cut background.)

Broadly, the IC50 is the point on the concentration scale where inhibition reaches its midpoint. Read a high IC50 as weaker potency. `Cc1ccnc(Nc2cccc(-c3cnc(-c4c(C)cccc4C)o3)n2)c1` [Example 062, {6-[2-(2,6-Dimethyl-phenyl)-oxazol-5-yl]-pyridin-2-yl}-(4-methyl-pyridin-2-yl)-amine] returned an IC50 of 1000 to 10000 nM.

For `Cc1ccnc(Nc2cccc(-c3cnc(-c4ccccn4)s3)n2)c1` [Example 080, (4-Methyl-pyridin-2-yl)-[6-(2-pyridin-2-yl-thiazol-5-yl)-pyridin-2-yl]-amine], the concentration for half-maximal inhibition (IC50) was less than 1000 nM.

With `Cc1ccnc(Nc2cccc(-c3cnc(-c4cccc(C#N)c4)s3)n2)c1` [Example 064, 3-{5-[6-(4-Methyl-pyridin-2-ylamino)-pyridin-2-yl]-thiazol-2-yl}-benzonitrile], the 50% inhibitory concentration (IC50) was in the range of 1000 to 10000 nM. Under `O=C1CN(c2ncc(-c3cccc(Nc4cnccn4)n3)o2)CCN1` [Example 140, 4-{5-[6-(Pyrazin-2-ylamino)-pyridin-2-yl]-oxazol-2-yl}-piperazine-2-one] stands less than 1000 nM; under `Cc1ccc(Nc2cccc(-c3cnc(N4CCNC(=O)C4)o3)n2)nc1` [Example 118, 4-{5-[6-(5-Methyl-pyridin-2-ylamino)-pyridin-2-yl]-oxazol-2-yl}-piperazine-2-one], less than 1000 nM; under `Cc1ccnc(Nc2cccc(-c3cnc(-c4ccccc4)s3)n2)c1` [Example 056, (4-Methyl-pyridin-2-yl)-[6-(2-phenyl-thiazol-5-yl)-pyridin-2-yl]-amine], less than 1000 nM. Under `Cc1ccnc(Nc2cccc(-c3cnc(-c4cccnc4)s3)n2)c1` [Example 020, (4-Methyl-pyridin-2-yl)-[6-(2-pyridin-3-yl-thiazol-5-yl)-pyridin-2-yl]-amine] stands less than 1000 nM. Under `Cc1ccnc(Nc2cccc(-c3cnc(-c4nc5ccccc5o4)o3)n2)c1` [Example 048, [6-(2-benzoxazole-2-yl-oxazol-5-yl)-pyridin-2-yl]-(4-methyl-pyridin-2-yl)-amine] stands less than 1000 nM; under `Cc1ccc(Nc2cccc(-c3cnc(-c4ccc5[nH]ccc5c4)o3)n2)nc1` [Example 116, {6-[2-(1H-Indol-5-yl)-oxazol-5-yl]-pyridin-2-yl}-(5-methyl-pyridin-2-yl)-amine], 1000 to 10000 nM. `Clc1ccnc(Nc2cccc(-c3cnc(-c4ccsc4)o3)n2)c1` [Example 120, (4-Chloro-pyridin-2-yl)-[6-(2-thiophen-3-yl-oxazol-5-yl)-pyridin-2-yl]-amine] had an IC50 of 1000 to 10000 nM. Next, `Cc1ccnc(Nc2cccc(-c3cnc(-c4ccc[nH]c4=O)o3)n2)c1` [Example 045, 3-{5-[6-(4-methyl-pyridin-2-ylamino)-pyridin-2-yl]-oxazol-2-yl}-1H-pyridin-2-one]: less than 1000 nM. Next, `Cc1ccnc(Nc2cccc(-c3cnc(-c4ccc5[nH]ccc5c4)o3)n2)c1` [Example 069, {6-[2-(1H-Indol-5-yl)-oxazol-5-yl]-pyridin-2-yl}-(4-methyl-pyridin-2-yl)-amine]: less than 1000 nM.

For the molecule `Cc1ccnc(Nc2cccc(-c3cnc(N4CCOCC4)o3)n2)c1` [Example 099, (4-Methyl-pyridin-2-yl)-[6-(2-morpholin-4-yl-oxazol-5-yl)-pyridin-2-yl]-amine], the IC50 is less than 1000 nM.
